The values below are quoted from earlier work in US10201174B2, “Process for reducing contaminating Michael acceptor levels in oxycodone and other compositions” (Controlled Chemicals, Inc., priority 2005, dated 2019).

SMILES strings stand for the structures.

For the data set the following is noted: thiol group ionisation, aqueous.

Take `O=C(O)c1cc(S)ccc1[N+](=O)[O-]` [5-mercapto-2-nitro-benzoic acid]: the “pKSH / pK of the thiol-containing compound” value is recorded as 4.8.
In the case of `O=C([O-])CS.[Na+]` [sodium thioglycolate], the “pKSH / pK of the thiol-containing compound” value is given as 10.3.
